# Assay results as given in PMC5374409, “D11-Mediated Inhibition of Protein Kinase CK2 Impairs HIF-1α-Mediated Signaling in Human Glioblastoma Cells” (Pharmaceuticals, 2017).
# Biological target: T1, protein kinase CK2 (CK2α) (Homo sapiens, UniProt P68400)
# T1 construct: gene CSNK2A1
# Assay: radioactive kinase assay with recombinant CK2 and synthetic peptide, varied ATP, Michaelis-Menten re-plots
# Type: biochemical
# T1 sequence (P68400 1-335): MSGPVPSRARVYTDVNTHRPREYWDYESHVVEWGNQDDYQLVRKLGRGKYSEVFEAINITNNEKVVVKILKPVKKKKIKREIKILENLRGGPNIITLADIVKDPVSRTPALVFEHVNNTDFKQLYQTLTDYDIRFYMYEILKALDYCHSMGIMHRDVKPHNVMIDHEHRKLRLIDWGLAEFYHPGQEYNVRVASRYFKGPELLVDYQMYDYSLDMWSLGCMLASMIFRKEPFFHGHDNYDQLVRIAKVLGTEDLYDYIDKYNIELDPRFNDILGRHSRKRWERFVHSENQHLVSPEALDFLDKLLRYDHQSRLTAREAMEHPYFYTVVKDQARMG
# T1 sequence (P67870 2-215 partner): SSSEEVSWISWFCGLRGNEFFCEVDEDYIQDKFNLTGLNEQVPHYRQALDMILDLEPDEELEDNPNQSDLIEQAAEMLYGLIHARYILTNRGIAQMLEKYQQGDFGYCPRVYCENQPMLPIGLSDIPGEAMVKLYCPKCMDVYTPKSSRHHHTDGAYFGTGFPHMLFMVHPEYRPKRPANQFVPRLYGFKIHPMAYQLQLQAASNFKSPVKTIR
compound,measurement,value
"COc1ccc(/N=C/c2c(O)ccc3c2oc2cc(Cl)c(O)c(Cl)c23)cc1 [D11, 1,3-dichloro-6-[(E)-((4-methoxyphenyl)imino)methyl]dibenzo(b,d)furan-2,7-diol]",Ki,7.7 nM
